From patent US10799503B2, “Methods for the treatment of cancer” (IGNYTA, INC., priority 2016, dated 2020)

Legend:
[1] = Phase I and Phase Ib clinical studies (Example 5, data cut-off Aug. 1, 2017): treatment-related adverse events and disposition; type: in vivo, human
Excerpt: The most common (>10%) treatment related AEs […].

[2] = Phase I and Phase Ib clinical studies (Example 4): treatment-related adverse events and disposition; type: in vivo, human
Procedure: Phase I and Phase Ib clinical studies were performed in which 92 total subjects were enrolled, 91 of which were treated, and of which 35 in the Phase Ib portion were determined to be molecularly evaluable and were treated.
Table 4 provides a summary of the most common, treatment-related adverse events (AEs) in all patients that were treated (n=91), expressed as a percentage of the 91 patients.

COc1cc2ncnc(Oc3cccc(NC(=O)Nc4cc(C(C)(C)C(F)(F)F)on4)c3)c2cc1OC [N-[3-[(6,7-dimethoxy-4-quinazolinyl)oxy]phenyl]-N′-[5-(2,2,2-trifluoro-1,1-dimethylethyl)-3-isoxazolyl]-urea]
Number of patients that discontinued due to death ([1]; Phase 1 (N = 55)): 3 n
Number of patients that discontinued due to death ([1]; Phase 1b Other (N = 50)): 1 n
Number of patients that discontinued due to death ([1]; Phase 1b RET+ (N = 47)): 0 n
Number of patients that discontinued due to death ([1]; Total Subjects (N = 152)): 4 n
Blood Bilirubin Increased ≤G2 ([1]; human, in vivo): 6 (4)
Blood Bilirubin Increased ≥G3 ([1]; human, in vivo): 1 (1)
Decreased Appetite ≤G2 ([1]; human, in vivo): 17 (11)
Decreased Appetite ≥G3 ([1]; human, in vivo): 0 (0)
Diarrhea ≤G2 ([1]; human, in vivo): 28 (18)
Diarrhea ≥G3 ([1]; human, in vivo): 6 (4)
Elevated Alanine Aminotransferase ≤G2 ([1]; human, in vivo): 4 (3)
Elevated Alanine Aminotransferase ≥G3 ([1]; human, in vivo): 11 (7)
Elevated Aspartate Aminotransferase ≤G2 ([1]; human, in vivo): 9 (6)
Elevated Aspartate Aminotransferase ≥G3 ([1]; human, in vivo): 6 (4)
Fatigue ≤G2 ([1]; human, in vivo): 27 (18)
Fatigue ≥G3 ([1]; human, in vivo): 5 (3)
Hypophosphatemia ≤G2 ([1]; human, in vivo): 13 (9)
Hypophosphatemia ≥G3 ([1]; human, in vivo): 11 (7)
Muscle Spasms ≤G2 ([1]; human, in vivo): 19 (13)
Muscle Spasms ≥G3 ([1]; human, in vivo): 0 (0)
Nausea ≤G2 ([1]; human, in vivo): 21 (14)
Nausea ≥G3 ([1]; human, in vivo): 0 (0)
Rash* ≤G2 ([1]; human, in vivo): 37 (24)
Rash* ≥G3 ([1]; human, in vivo): 15 (10)
Vomiting ≤G2 ([1]; human, in vivo): 15 (10)
Vomiting ≥G3 ([1]; human, in vivo): 0 (0)
number of treatment-related serious adverse events (SAEs) ([1]; human, in vivo): 19
patients who experienced treatment-related serious adverse events (SAEs) ([1]; human, in vivo): 9%
resolution of treatment-related serious adverse events ([1]; human, in vivo): all except 1 resolved by dose modification or discontinuation
safety profile ([1]; human, in vivo): manageable safety profile
severity and reversibility of the majority of treatment-related adverse events ([1]; human, in vivo): <Grade 2 and were reversible with dose modifications
toxicities commonly associated with VEGFR inhibition (hypertension, hypothyroidism, proteinuria, neurotoxicity) ([1]; human, in vivo): rarely observed
Discontinued, primary reason Death, number of subjects ([2]; 92 enrolled in Phase 1/1b): 4 n
Discontinued, primary reason Death, percent of subjects ([2]; 92 enrolled in Phase 1/1b): (4) %
ALT increase Any Grade, number of patients ([2]; human, in vivo): 6
ALT increase Any Grade, percentage of patients ([2]; human, in vivo): (7) %
ALT increase Grade ≤ 2, number of patients ([2]; human, in vivo): 1
ALT increase Grade ≤ 2, percentage of patients ([2]; human, in vivo): (1) %
ALT increase Grade ≥ 3, number of patients ([2]; human, in vivo): 5
ALT increase Grade ≥ 3, percentage of patients ([2]; human, in vivo): (6) %
AST increase Any Grade, number of patients ([2]; human, in vivo): 6
AST increase Any Grade, percentage of patients ([2]; human, in vivo): (7) %
AST increase Grade ≤ 2, percentage of patients ([2]; human, in vivo): (3) %
AST increase Grade ≥ 3, number of patients ([2]; human, in vivo): 3
AST increase Grade ≥ 3, percentage of patients ([2]; human, in vivo): (3) %
Anemia Any Grade, number of patients ([2]; human, in vivo): 6
Anemia Any Grade, percentage of patients ([2]; human, in vivo): (7) %
Anemia Grade ≤ 2, number of patients ([2]; human, in vivo): 5
Anemia Grade ≤ 2, percentage of patients ([2]; human, in vivo): (6) %
Anemia Grade ≥ 3, number of patients ([2]; human, in vivo): 1
Anemia Grade ≥ 3, percentage of patients ([2]; human, in vivo): (1) %
Decreased Appetite Any Grade, number of patients ([2]; human, in vivo): 9
Decreased Appetite Any Grade, percentage of patients ([2]; human, in vivo): (10) %
Decreased Appetite Grade ≤ 2, number of patients ([2]; human, in vivo): 9
Decreased Appetite Grade ≤ 2, percentage of patients ([2]; human, in vivo): (10) %
Decreased Appetite Grade ≥ 3, number of patients ([2]; human, in vivo): 0
Diarrhea Any Grade, number of patients ([2]; human, in vivo): 18
Diarrhea Any Grade, percentage of patients ([2]; human, in vivo): (20) %
Diarrhea Grade ≤ 2, number of patients ([2]; human, in vivo): 14
Diarrhea Grade ≤ 2, percentage of patients ([2]; human, in vivo): (15) %
Diarrhea Grade ≥ 3, number of patients ([2]; human, in vivo): 4
Diarrhea Grade ≥ 3, percentage of patients ([2]; human, in vivo): (4) %
Discontinued, primary reason Adverse Event, number of subjects ([2]; human, in vivo): 11 n
Discontinued, primary reason Adverse Event, percent of subjects ([2]; human, in vivo): (12) %
Dysgeusia Any Grade, number of patients ([2]; human, in vivo): 5
Dysgeusia Any Grade, percentage of patients ([2]; human, in vivo): (6) %
Dysgeusia Grade ≤ 2, number of patients ([2]; human, in vivo): 5
Dysgeusia Grade ≤ 2, percentage of patients ([2]; human, in vivo): (6) %
Dysgeusia Grade ≥ 3, number of patients ([2]; human, in vivo): 0
Erythema Any Grade, number of patients ([2]; human, in vivo): 7
Erythema Any Grade, percentage of patients ([2]; human, in vivo): (8) %
Erythema Grade ≤ 2, number of patients ([2]; human, in vivo): 7
Erythema Grade ≤ 2, percentage of patients ([2]; human, in vivo): (8) %
Erythema Grade ≥ 3, number of patients ([2]; human, in vivo): 0
Fatigue Any Grade, number of patients ([2]; human, in vivo): 20
Fatigue Any Grade, percentage of patients ([2]; human, in vivo): (22) %
Fatigue Grade ≤ 2, number of patients ([2]; human, in vivo): 16
Fatigue Grade ≤ 2, percentage of patients ([2]; human, in vivo): (18) %
Fatigue Grade ≥ 3, number of patients ([2]; human, in vivo): 4
Fatigue Grade ≥ 3, percentage of patients ([2]; human, in vivo): (4) %
Hypokalemia Any Grade, number of patients ([2]; human, in vivo): 6
Hypokalemia Any Grade, percentage of patients ([2]; human, in vivo): (7) %
Hypokalemia Grade ≤ 2, number of patients ([2]; human, in vivo): 6
Hypokalemia Grade ≤ 2, percentage of patients ([2]; human, in vivo): (7) %
Hypokalemia Grade ≥ 3, number of patients ([2]; human, in vivo): 0
Hypophosphatemia Any Grade, number of patients ([2]; human, in vivo): 13
Hypophosphatemia Any Grade, percentage of patients ([2]; human, in vivo): (14) %
Hypophosphatemia Grade ≤ 2, number of patients ([2]; human, in vivo): 7
Hypophosphatemia Grade ≤ 2, percentage of patients ([2]; human, in vivo): (8) %
Hypophosphatemia Grade ≥ 3, number of patients ([2]; human, in vivo): 6
Hypophosphatemia Grade ≥ 3, percentage of patients ([2]; human, in vivo): (7) %
Muscle Spasms Any Grade, number of patients ([2]; human, in vivo): 12
Muscle Spasms Any Grade, percentage of patients ([2]; human, in vivo): (13) %
Muscle Spasms Grade ≤ 2, number of patients ([2]; human, in vivo): 12
Muscle Spasms Grade ≤ 2, percentage of patients ([2]; human, in vivo): (13) %
Muscle Spasms Grade ≥ 3, number of patients ([2]; human, in vivo): 0
Nausea Any Grade, number of patients ([2]; human, in vivo): 16
Nausea Any Grade, percentage of patients ([2]; human, in vivo): (18) %
Nausea Grade ≤ 2, number of patients ([2]; human, in vivo): 16
Nausea Grade ≤ 2, percentage of patients ([2]; human, in vivo): (18) %
Nausea Grade ≥ 3, number of patients ([2]; human, in vivo): 0
Rash* Any Grade, number of patients ([2]; human, in vivo): 28
Rash* Any Grade, percentage of patients ([2]; human, in vivo): (31) %
Rash* Grade ≤ 2, number of patients ([2]; human, in vivo): 20
Rash* Grade ≤ 2, percentage of patients ([2]; human, in vivo): (22) %
Rash* Grade ≥ 3, number of patients ([2]; human, in vivo): 8
Rash* Grade ≥ 3, percentage of patients ([2]; human, in vivo): (9) %
Vomiting Any Grade, number of patients ([2]; human, in vivo): 13
Vomiting Any Grade, percentage of patients ([2]; human, in vivo): (14) %
Vomiting Grade ≤ 2, number of patients ([2]; human, in vivo): 13
Vomiting Grade ≤ 2, percentage of patients ([2]; human, in vivo): (14) %
Vomiting Grade ≥ 3, number of patients ([2]; human, in vivo): 0
